Reference: publication PMC12214536 (Nature Communications, 2025)
Read-outs that look alike come from different tables or passages of the source.

Columns and labels:
CrzA:GFP = assay type: cell-based, Aspergillus fumigatus; settings: 15 min
ΔsltA CrzA:GFP = assay type: cell-based, Aspergillus fumigatus; settings: 15 min
[1] = system: A. fumigatus h2A::mRFP strain; experiment: h2A::mRFP fluorescence, apoptosis-like cell death marker; assay type: cell-based, Aspergillus fumigatus; settings: H2O2 10 mM, COL 10 or 20 μM, CAS 0.03 or 0.2 μg/mL, or CAS with COL; 1 h
A. fumigatus conidia = experiment: Fungicidal activity: CFU on drug-free MM after 48 h with compound + CAS; assay type: cell-based, Aspergillus fumigatus; settings: 0.2 μg/mL CAS, then CFU on compound-free medium, n = 3
[2] = system: A. fumigatus conidia in A549 cells; experiment: A549 human lung epithelial cells killing assay; assay type: cell-based, Aspergillus fumigatus
A. fumigatus = assay type: cell-based, Aspergillus fumigatus; settings: 58 PKI at 20 µM alone or with COL 2.5 µM; 48 h, 37 °C
HepG2 liver cells = experiment: HepG2 cytotoxicity, Alamar blue; assay type: cell-based, human; settings: COL 0, 20 and 40 µM + CAS 50 μg/mL; topotecan positive control; 48 h; n = 6
[3] = system: A. fumigatus (Af293) infection; assay type: in vivo, Caenorhabditis elegans
[4] = system: A. fumigatus wild-type mycelia; assay type: cell-based, Aspergillus fumigatus; settings: n = 9
A. fumigatus ΔcalA = assay type: cell-based, Aspergillus fumigatus
A. fumigatus ΔsltA = assay type: cell-based, Aspergillus fumigatus
[5] = system: A. fumigatus mito::GFP germlings; assay type: cell-based, Aspergillus fumigatus
A. fumigatus ΔcrzA = assay type: cell-based, Aspergillus fumigatus
A. fumigatus ΔsltA ΔcrzA = assay type: cell-based, Aspergillus fumigatus
[6] = system: A. fumigatus wild-type (p)agsA::mluc; assay type: cell-based, Aspergillus fumigatus; settings: CAS 0.05 and 0.125 µg/mL; COL 50 and 80 µM; or combination; 16 h at 35 °C
SltA = assay type: cell-based, Aspergillus fumigatus

[Ca+2].[Cl-].[Cl-] [CaCl2]
increase of CrzA:GFP translocation to the nucleus (CrzA:GFP): about 4 fold | increase of CrzA:GFP localization to the nucleus (ΔsltA CrzA:GFP): about 4 fold

OO [H2O2]
mRFP fluorescence of h2A::mRFP germlings [1]: complete loss of red fluorescence

COC(=O)C1=C(C)NC(C)=C(C(=O)OC(C)(C)CN(C)CCC(c2ccccc2)c2ccccc2)C1c1cccc([N+](=O)[O-])c1 (centres unmarked) [LER, lercanidipine]
lowest concentration with 100% fungicidal effect combined with CAS (A. fumigatus conidia): 3.95 µg/mL

C[C@@H](c1ncncc1F)[C@](O)(Cn1cncn1)c1ccc(F)cc1F [VOR, voriconazole]
A. fumigatus conidial killing ([2]; VOR 0.5 μg/mL, COL 20 and 40 μM, CAS 50 μg/mL, or COL + CAS, MOI 1:10, 24 h, n = 6): 85%

Cn1cc(C2=C(c3cn(C4CCN(Cc5ccccn5)CC4)c4ccccc34)C(=O)NC2=O)c2ccccc21 [enzaustarin, enzastaurin]
potentiation of COL activity (metabolic activity) (A. fumigatus): potentiated COL activity

CC[C@@]1(O)C(=O)OCc2c1cc1n(c2=O)Cc2cc3c(CN(C)C)c(O)ccc3nc2-1 [topotecan]
toxicity to HepG2 cells (cell viability, Alamar blue) (HepG2 liver cells): very high toxicity

caspofungin
survival of infected animals over 3 days ([3]; 25 °C): significantly improved survival | reduction of total ATP compared with the control [4]: about 25% | growth of ΔcalA compared to wild-type (A. fumigatus ΔcalA): significantly better growth | growth of ΔsltA compared with the wild-type strain (A. fumigatus ΔsltA): comparable growth with the wild-type | mRFP fluorescence of h2A::mRFP germlings [1]: no differences in mRFP fluorescence | germlings with mitochondrial fragmentation [5]: 35% | growth of ΔcrzA compared to wild-type (A. fumigatus ΔcrzA): significantly better growth

colistin
survival of infected animals over 3 days ([3]; in vivo): no impact on C. elegans survival | reduction of total ATP compared with the control [4]: about 25% | sensitivity of ΔsltA ΔcrzA compared with ΔsltA (A. fumigatus ΔsltA ΔcrzA): as sensitive to COL and COL with CAS as ΔsltA alone | A. fumigatus conidial killing, COL alone vs combination ([2]; COL 80 µM vs COL 80 µM + CAS 50 µg/mL): same level of conidial killing than the combination of COL 80 µM + CAS 50 µg/mL | effect of Ca2+ addition on ΔsltA growth in the presence of COL (A. fumigatus ΔsltA): rescue ΔsltA growth | growth of ΔsltA compared with the wild-type strain (A. fumigatus ΔsltA): significantly more sensitive to COL | luminescence readings compared with no compound controls [6]: about 2 fold | increase of CrzA:GFP translocation to the nucleus (CrzA:GFP): about 4 fold | increased expression of SltA compared to non-exposure (SltA): about 4 fold | mRFP fluorescence of h2A::mRFP germlings [1]: no differences in mRFP fluorescence | germlings with mitochondrial fragmentation [5]: 20% | lowest concentration with 100% fungicidal effect combined with CAS (A. fumigatus conidia): 10 µM
